Test results published in patent US8273787B2, “Activated cytotoxic compounds for attachment to targeting molecules for the treatment of mammalian disease conditions” (Onconova Therapeutics, Inc, priority 2006, dated 2012).

How the values were obtained:
[1] = test system: MES-SA (PARENTAL); assay: growth inhibition, MES-SA (parental); type: cell-based; details: Homo sapiens, uterine sarcoma
Procedure: (§1) Two compounds were selected from our library of cytotoxic molecules for immunoconjugation since they both have IC50 values in the low nanomolar range. Various tumor cell lines (ATCC) were treated for 96 hours in the presence of increasing concentrations of each compound and the total number of viable cells remaining was determined after 96 hours of exposure. The IC50 value was determined to be the amount of drug required to inhibit the growth of each cell line 50% as compared to vehicle treated cells.
(§2) Another extremely important predictive factor is the ability of these compounds to kill cell lines overexpressing multiple drug resistance (MDR) genes. A very high percentage of cancer patient relapses are due to some form of resistance to traditional chemotherapy. Of these patients, the vast majority express one or more of the MDR genes within the ABC transport gene family. Overexpression of these genes increases the efflux of compounds that are recognized by these pumping systems. […] Onconova's benzyl styryl sulfone compounds are not recognized by the MDR-1 gene and therefore provide an advantage over other highly toxic drugs including but not limited to the taxanes, doxorubicin, etoposide, and vinca-alkaloids. […] MES-SA/Dx5, uterine sarcoma, and […], ovarian, are both classical multidrug resistant cell lines that are cross resistant to the taxanes and anthracyclins. Harker, W G, and Sikic, B. I., Multidrug (Pleiotropic) Resistance In Doxorubicin-Selected Variants Of The Human Sarcoma Cell Line MES-SA, Cancer Res. 45(9):4091-6 (1985). MES-SA/Dx5 and Apr. […] Fujimori, A., et al., Mutation At The Catalytic Site Of Topoisomerase I In CEM/C2, A Human Leukemia Cell Line Resistant To Camptothecin, Cancer Res. 55(6): 1339-46 (1995). ON 01500 and ON 013100, for example, are both extremely active against these resistant cell lines.

[2] = test system: MES-SA/Dx5 (RESISTANT); assay: growth inhibition, MES-SA/Dx5 (resistant); type: cell-based, Human
Procedure: as §1, §2

[3] = test system: 2008 (PARENTAL); assay: growth inhibition, 2008 (parental); type: cell-based; details: ovarian
Procedure: as §1, §2

[4] = test system: 2008/17/4 (RESISTANT); assay: growth inhibition, 2008/17/4 (resistant); type: cell-based
Procedure: as §1, §2

[5] = test system: CEM; assay: 96 hour growth inhibition, CEM; type: cell-based; details: Homo sapiens, CCRF-CEM; CEM (PARENTAL)
Procedure: as §1, §2

[6] = test system: CEM/C2 (RESISTANT); assay: growth inhibition, CEM/C2 (resistant); type: cell-based, Human
Procedure: as §1, §2

## CC(=O)O[C@H]1C(=O)[C@@]2(C)[C@H]([C@H](OC(=O)c3ccccc3)[C@]3(O)C[C@H](OC(=O)[C@H](O)[C@@H](NC(=O)c4ccccc4)c4ccccc4)C(C)=C1C3(C)C)[C@]1(OC(C)=O)CO[C@@H]1C[C@@H]2O [PACLITAXEL, reference compound]
[1]
  IC50: 4 nM
[2]; Homo sapiens, MES-SA/Dx5 (RESISTANT), uterine sarcoma, multidrug resistant
  IC50: 750 nM
[2]; MES-SA/Dx5 (RESISTANT) versus MES-SA (PARENTAL)
  RSIST-ANCE: 188
[2]; MES-SA/Dx5 versus parental
  fold resistant: 188 fold
[3]
  IC50: 3 nM
[4]; 2008/17/4 (RESISTANT) versus 2008 (PARENTAL)
  RSIST-ANCE: 667
[4]; 2008/17/4 (RESISTANT), ovarian, multidrug resistant
  IC50: 2000 nM
[4]; 2008/17/4 (printed Apr. 17, 2008) versus parental
  fold resistant: 667 fold

## CC[C@@]1(O)C(=O)OCc2c1cc1n(c2=O)Cc2cc3ccccc3nc2-1 [CAMPTOTHECIN, reference compound]
[5]
  IC50: 2 nM
[6]; CEM/C2 (RESISTANT) versus CEM (PARENTAL)
  RSIST-ANCE: 500
[6]; Homo sapiens, CEM/C2 (RESISTANT), non classical multiple drug resistant
  IC50: 1000 nM
